# Results from US11628169B2, “Therapeutic drug for motor complications in Parkinson's disease” (Sumitomo Pharma Co., Ltd., priority 2020, dated 2023).
# Entries after “also recorded” stand apart in the source; their conditions may differ.
# Assays:
# [1] = tested on: PD-LID rat model; experiment: ON score and ON time without dyskinesia in PD-LID rat model; format: in vivo; conditions: for total ON score (Locomotive behavior) in 3 hours: levodopa 5 min later
# Procedure: To make a PD-LID rat model, a mixture of levodopa methyl ester hydrochloride (6 mg/kg; Sigma-Aldrich) dissolved in saline and benserazide hydrochloride (15 mg/kg; Sigma-Aldrich) (hereinafter, also referred to as “levodopa containing solution”) was intraperitoneally administered once daily to 6-OHDA-lesioned rats. The levodopa containing solution was repeatedly administered for 3 weeks or longer to observe and evaluate the behavior. The behavior was observed and evaluated in a transparent acrylic cage for 1 minute every 20 minutes after 20 minutes from the intraperitoneal administration of the levodopa containing solution, up until after 3 hours from administration. […] Individuals with a total AIMs score of less than 10 were excluded from the test as not manifesting a dyskinesia-like symptom. The behavior was observed and evaluated before the drug evaluation date. […] For an indicator of dyskinesia behavior, the sum of the Limb AIMs, Axial AIMs, and Orolingual AIMs at each evaluation point was used as the AIMs score. For the rotational behavior (ON score), Locomotive behavior at each evaluation point was used as an indicator. […] For ON time without dyskinesia, the period during which the AIMs score is 0 and Locomotive behavior is 1 or greater at each evaluation point was added. Duration of action of levodopa without a dyskinesia symptom (ON time without dyskinesia) refers to the aggregate time with no dyskinesia during the antiparkinsonian action effective time, i.e., “ON-time”, and defined as the time during which the dyskinesia symptom (AIMs) score is 0 and the rotational behavior (Locomotive behavior) score is 1 or greater at each evaluation point after levodopa administration. […] After 5 minutes, a levodopa containing solution was intraperitoneally administered, and the behavior was observed and evaluated. The results in the drawings are indicated in terms of mean value±standard error. […] For evaluation of a tape agent, the abdominal regions of the rats were shaved prior to the evaluation date. […] After 4 hours from application, a levodopa containing solution was intraperitoneally administered to observe and evaluation the behavior. The results in the drawings are indicated in terms of mean value±standard error. Individuals with 50% or more of the tape agent coming off during the test were excluded from analysis.
# [2] = Plasma tandospirone concentration after observation of behavior in PD-LID rats; format: in vivo, rat; conditions: continuous subcutaneous infusion 60 mg/mL (mean 0.78 mg/kg/hour as citrate)
# Procedure: 50 μL of rat plasma sample was fractionated into a polypropylene microtube. 50 μL of methanol (50 μL of standard solution for calibration curve sample) and 200 μL of internal standard solution (Bezafibrate methanol solution: 200 nmol/L, 200 μL of methanol for blank sample) are added and stirred for about 10 seconds with a mixer. This is centrifuged (4° C., 4500 rpm, 10 min), and then the supernatant is subjected to vacuum filtration using a filter (FastRemover MF 0.2 μm). 70 μL of aqueous 10 mmol/L ammonium acetate solution is added to 70 μL of the resulting filtrate and stirred for about 10 seconds with a mixer to prepare a measurement sample.
# When evaluating a tape agent, the hair on the abdominal region of rats was shaved before the evaluation date. The tape agent of formulation 2 was applied to the abdominal regions of rats on the evaluation date at 60 cm^2/kg (37 mg/kg). After 4 hours from application, a levodopa containing solution was intraperitoneally administered to observe and evaluate the behavior. Individuals with 50% or more of the tape agent coming off during the test were excluded from analysis. […]
# After 4 hours, a levodopa containing solution was administered to observe and evaluate the behavior (day 0 of implanting the pump). […] The behavior was also observed and evaluated on day 13 of implanting the pump.
# [3] = tested on: PD-LID rat model; experiment: Dyskinesia-like symptom (AIMs) score in PD-LID rat model; format: in vivo
# [4] = oral 67 mg/kg as free form (100 mg/kg as citrate)
substance,measurement,setting,value
tandospirone citrate,(iii) Duration of action of levodopa without dyskinesia symptom (ON time without dyskinesia),"[1]; oral 20 mg/kg as free form (30 mg/kg as citrate), vs solvent group",increase in ON time without dyskinesia
same,total ON score (Locomotive behavior) in 3 hours,"[1]; oral 30 mg/kg as citrate, vs solvent group",increase in the total ON score
same,(iii) Duration of action of levodopa without dyskinesia symptom (ON time without dyskinesia),"[1]; oral 67 mg/kg as free form (100 mg/kg as citrate), prolongation vs solvent group",significant prolongation in the ON-time without dyskinesia; also recorded: increase in ON time without dyskinesia
same,total ON score (Locomotive behavior) in 3 hours,"[1]; oral 100 mg/kg as citrate, vs solvent group",increase in the total ON score
same,mean value of the plasma tandospirone concentrations (value converted in terms of free form),[2]; day 0 of implanting the pump,281 ng/mL
same,mean value of the plasma tandospirone concentrations (value converted in terms of free form),[2]; day 13 of implanting the pump,143 ng/mL
same,dyskinesia-like symptoms (total AIMs score in 3 hours),"[3]; continuous subcutaneous infusion 60 mg/mL (mean 0.78 mg/kg/hour), day 13 of implanting the pump, vs solvent group",significant improvement in dyskinesia-like symptoms
same,"(i) Degree of improvement in indicator of dyskinesia symptom (total AIMs score in 3 hours, solvent minus tandospirone group)",[3]; oral 6.7 mg/kg as free form (10 mg/kg as citrate),significant change in the total AIMs score was not observed
same,"(i) Degree of improvement in indicator of dyskinesia symptom (total AIMs score in 3 hours, solvent minus tandospirone group)",[3]; oral 20 mg/kg as free form (30 mg/kg as citrate),significant change in the total AIMs score was not observed
same,"(ii) Indicator of rebound symptom of dyskinesia (total dyskinesia-like symptom score in 100 to 180 minutes, solvent minus tandospirone group)","[3]; oral 20 mg/kg as free form (30 mg/kg as citrate), experiment printed as (FIG. 7)",significant increase in the total AIMs score
same,"(ii) Indicator of rebound symptom of dyskinesia (total dyskinesia-like symptom score in 100 to 180 minutes, solvent minus tandospirone group)","[3]; oral 20 mg/kg as free form (30 mg/kg as citrate), experiment printed as (FIGS. 8A-8B)",significant increase in the total AIMs score
same,"(i) Degree of improvement in indicator of dyskinesia symptom (total AIMs score in 3 hours, solvent minus tandospirone group)",[3]; [4],significant change in the total AIMs score was not observed
same,"(ii) Indicator of rebound symptom of dyskinesia (total dyskinesia-like symptom score in 100 to 180 minutes, solvent minus tandospirone group)",[3]; [4],significant increase in the total AIMs score
